Test results: BindingDB's records for doi:10.1016/j.bmcl.2013.01.017 (Vanderbilt University Medical Center, 2013)

Biological target: T1, Muscarinic acetylcholine receptor M1 (Homo sapiens, UniProt P11229)
T1 sequence (P11229 whole entry): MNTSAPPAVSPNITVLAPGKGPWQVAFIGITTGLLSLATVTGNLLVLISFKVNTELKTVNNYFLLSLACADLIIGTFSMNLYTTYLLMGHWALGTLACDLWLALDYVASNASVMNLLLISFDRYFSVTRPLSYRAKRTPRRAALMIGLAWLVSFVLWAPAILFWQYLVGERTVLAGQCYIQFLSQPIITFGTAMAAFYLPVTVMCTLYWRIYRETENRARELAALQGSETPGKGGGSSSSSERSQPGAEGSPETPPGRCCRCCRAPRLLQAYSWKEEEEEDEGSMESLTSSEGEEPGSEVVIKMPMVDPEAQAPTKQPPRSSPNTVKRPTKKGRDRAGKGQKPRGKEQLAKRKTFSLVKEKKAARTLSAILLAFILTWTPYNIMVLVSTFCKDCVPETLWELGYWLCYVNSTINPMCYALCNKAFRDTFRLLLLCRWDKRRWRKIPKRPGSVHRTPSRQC
Assay: Positive allosteric modulation of human muscarinic M1 receptor

Compound: Cn1cc(-c2ccc(CN3C(=O)C4(CCN(C5CCCC5)C4)c4ccccc43)c(F)c2)cn1 (stereo unspecified)
- EC50: > 10 µM
